The values that follow come from US20240285621A1, “PYRAZOLYL-PYRIMIDINE DERIVATIVES AS KINASE INHIBITORS” (NERVIANO MEDICAL SCIENCES S.R.L., priority 2020, published 2024).

By IC50 is commonly meant the midpoint of a concentration-inhibition curve.

Structures can show the parent of a compound that is named as a salt.

The target of this assay is T1, SYK (Homo sapiens, UniProt P43405).
T1 construct: Recombinant proteins SYK FL was produced at NMS via baculo virus infection in insect cells; His; GST; made in house; host or cells: insect cells (baculovirus)
The experiment in a line: Biochemical kinase inhibition assay on SYK, KinaseGlo assay format. The following applies: Table A; KinaseGlo format, pre-activated SYK 2.5 nM, ATP 2.5 μM, substrate BioDBn*327 125 uM, 60 minutes at rt; read-out: IC50 (μM) Kglo.
With `COc1cc(Nc2nccc(-c3cc(C(=O)N[C@@H](C)C(=O)N(C)C)n(C)n3)n2)cc(OC)c1` [Example 71, 3-{2-[(3,5-dimethoxyphenyl)amino]pyrimidin-4-yl}-N-[(2S)-1-(dimethylamino)-1-oxopropan-2-yl]-1-methyl-1H-pyrazole-5-carboxamide], the IC50 stood at 0.452 µM.

For `Cc1cc(C)cc(Nc2nccc(-c3cc(C(=O)N4CC[C@@H](O)C4)n(C)n3)n2)c1` [Example 85, (3-{2-[(3,5-dimethylphenyl)amino]pyrimidin-4-yl}-1-methyl-1H-pyrazol-5-yl)[(3R)-3-hydroxypyrrolidin-1-yl]methanone], the IC50 came to 0.209 µM.

For `Cc1cc(C)cc(Nc2nccc(-c3cc(C(=O)N4CC[C@H](N(C)C)C4)n(C)n3)n2)c1` [Example 86, [(3S)-3-(dimethylamino)pyrrolidin-1-yl](3-{2-[(3,5-dimethylphenyl)amino]pyrimidin-4-yl}-1-methyl-1H-pyrazol-5-yl)methanone], the IC50 worked out at 0.471 µM.

Consider `Cc1cc(C)cc(Nc2nccc(-c3cc(C(=O)N4CCC(N)C4)n(C)n3)n2)c1` (stereo not drawn) [Example 88, (3-aminopyrrolidin-1-yl)(3-{2-[(3,5-dimethylphenyl)amino]pyrimidin-4-yl}-1-methyl-1H-pyrazol-5-yl)methanone], for which the IC50 is 0.051 µM.

`Cc1cc(C)cc(Nc2nccc(-c3cc(C(=O)N4CCC[C@H]4CO)n(C)n3)n2)c1` [Example 89, (3-{2-[(3,5-dimethylphenyl)amino]pyrimidin-4-yl}-1-methyl-1H-pyrazol-5-yl)[(2S)-2-(hydroxymethyl)pyrrolidin-1-yl]methanone]: the IC50 came out at 0.219 µM.

For the compound `Cc1cc(C)cc(Nc2nccc(-c3cc(C(=O)N4CC[C@H](O)C4)n(C)n3)n2)c1` [Example 90, (3-{2-[(3,5-dimethylphenyl)amino]pyrimidin-4-yl}-1-methyl-1H-pyrazol-5-yl)[(3S)-3-hydroxypyrrolidin-1-yl]methanone], the IC50 worked out at 0.156 µM.

In the case of `Cc1cc(C)cc(Nc2nccc(-c3cc(C(=O)N[C@@H]4CCCC[C@@H]4O)n(C)n3)n2)c1` [Example 91, 3-{2-[(3,5-dimethylphenyl)amino]pyrimidin-4-yl}-N-[(1R,2S)-2-hydroxycyclohexyl]-1-methyl-1H-pyrazole-5-carboxamide], the IC50 was 0.035 µM.

Regarding `Cc1c(C)n(C)c2ccc(Nc3nccc(-c4cc(C(=O)N[C@@H](C)CO)n(C)n4)n3)cc12` [Example 93, N-[(2S)-1-hydroxypropan-2-yl]-1-methyl-3-{2-[(1,2,3-trimethyl-1H-indol-5-yl)amino]pyrimidin-4-yl}-1H-pyrazole-5-carboxamide], the concentration for half-maximal inhibition (IC50) is 0.137 µM.

As to `Cc1cc(C)cc(Nc2nccc(-c3cc(C(=O)N4C[C@H]5C[C@H]4CN5)n(C)n3)n2)c1` [Example 96, (1S,4R)-2,5-diazabicyclo[2.2.1]hept-2-yl(3-{2-[(3,5-dimethylphenyl)amino]pyrimidin-4-yl}-1-methyl-1H-pyrazol-5-yl)methanone hydrochloride], the IC50 worked out at 0.07 µM.

Take `Cn1nc(-c2ccnc(Nc3cc(Cl)cc(Cl)c3)n2)cc1C(=O)N[C@H]1CCCC[C@H]1N` [Example 99, N-[(1S,2R)-2-aminocyclohexyl]-3-{2-[(3,5-dichlorophenyl)amino]pyrimidin-4-yl}-1-methyl-1H-pyrazole-5-carboxamide hydrochloride]: the IC50 came out at 0.011 µM.

Take `COc1cc(Nc2nccc(-c3cc(C(=O)N[C@H]4CCCC[C@H]4N)n(C)n3)n2)cc(OC)c1` [Example 100, N-[(1S,2R)-2-aminocyclohexyl]-3-{2-[(3,5-dimethoxyphenyl)amino]pyrimidin-4-yl}-1-methyl-1H-pyrazole-5-carboxamide hydrochloride]: the 50% inhibitory concentration (IC50) turned out to be 0.011 µM.

As to `Cc1cc(C)cc(Nc2nccc(-c3cc(C(=O)N[C@H]4CCCC[C@H]4N)[nH]n3)n2)c1` [Example 104, N-[(1S,2R)-2-aminocyclohexyl]-3-{2-[(3,5-dimethylphenyl)amino]pyrimidin-4-yl}-1H-pyrazole-5-carboxamide hydrochloride], the IC50 was less than 0.004 µM.

Consider `Cc1cc(C)cc(Nc2nccc(-c3cc(C(=O)N[C@H](CN4CCC4)C(C)C)[nH]n3)n2)c1` [Example 105, N-[(2S)-1-(azetidin-1-yl)-3-methylbutan-2-yl]-3-{2-[(3,5-dimethylphenyl)amino]pyrimidin-4-yl}-1H-pyrazole-5-carboxamide], for which the IC50 was found to be 0.012 µM.

For the compound `Cc1cc(C)cc(Nc2nccc(-c3cc(C(=O)N[C@H](CN4CCCC4)c4ccccc4)n(C)n3)n2)c1` [Example 107, 3-{2-[(3,5-dimethylphenyl)amino]pyrimidin-4-yl}-1-methyl-N-[(1S)-1-phenyl-2-(pyrrolidin-1-yl)ethyl]-1H-pyrazole-5-carboxamide], the IC50 came to 0.026 µM.

Regarding `C[C@@H](CO)NC(=O)c1cc(-c2ccnc(Nc3ccc(N4CCN(C)CC4)c(Cl)c3)n2)nn1C` [Example 110, 3-(2-{[3-chloro-4-(4-methylpiperazin-1-yl)phenyl]amino}pyrimidin-4-yl)-N-[(2S)-1-hydroxypropan-2-yl]-1-methyl-1H-pyrazole-5-carboxamide], the IC50 was 0.452 µM.

As for `CC(C)[C@@H](CO)NC(=O)c1cc(-c2ccnc(Nc3ccc(N4CCN(C)CC4)c(Cl)c3)n2)nn1C` [Example 111, 3-(2-{[3-chloro-4-(4-methylpiperazin-1-yl)phenyl]amino}pyrimidin-4-yl)-N-[(2S)-1-hydroxy-3-methylbutan-2-yl]-1-methyl-1H-pyrazole-5-carboxamide], the IC50 stood at 0.144 µM.

With `Cc1cccc(Nc2nccc(-c3cc(C(=O)N[C@H](CN4CCCC4)C(C)C)n(C)n3)n2)c1` [Example 112, 1-methyl-3-{2-[(3-methylphenyl)amino]pyrimidin-4-yl}-N-[(2S)-3-methyl-1-(pyrrolidin-1-yl)butan-2-yl]-1H-pyrazole-5-carboxamide], the IC50 turned out to be 0.023 µM.

With `Cn1nc(-c2ccnc(Nc3cc(F)cc(F)c3)n2)cc1C(=O)N[C@H]1CCCC[C@@H]1N` [Example 113, N-[(1S,2S)-2-aminocyclohexyl]-3-{2-[(3,5-difluorophenyl)amino]pyrimidin-4-yl}-1-methyl-1H-pyrazole-5-carboxamide], the IC50 stood at 0.061 µM.

For the compound `CN1CCN(c2ccc(Nc3nccc(-c4cc(C(=O)N[C@H]5CCCC[C@H]5O)n(C)n4)n3)cc2Cl)CC1` [Example 114, 3-(2-{[3-chloro-4-(4-methylpiperazin-1-yl)phenyl]amino}pyrimidin-4-yl)-N-[(1S,2R)-2-hydroxycyclohexyl]-1-methyl-1H-pyrazole-5-carboxamide], the IC50 was determined as 0.191 µM.

In the case of `Cc1cc(C)cc(Nc2nccc(-c3cc(C(=O)N[C@H]4CCCC[C@H]4O)n(C)n3)n2)c1` [Example 115, 3-{2-[(3,5-dimethylphenyl)amino]pyrimidin-4-yl}-N-[(1S,2R)-2-hydroxycyclohexyl]-1-methyl-1H-pyrazole-5-carboxamide], the IC50 was 0.023 µM.

For the compound `Cn1nc(-c2ccnc(Nc3cc(Cl)cc(Cl)c3)n2)cc1C(=O)N[C@H]1CCCC[C@@H]1N` [Example 116, N-[(1S,2S)-2-aminocyclohexyl]-3-{2-[(3,5-dichlorophenyl)amino]pyrimidin-4-yl}-1-methyl-1H-pyrazole-5-carboxamide], the IC50 was 0.011 µM.
